Laboratory results taken from patent US7531565B2, “Imidazolidin-2-one derivatives as selective androgen receptor modulators (SARMS)” (Janssen Pharmaceutica, N.V., priority 2004, dated 2009).

Assays:
[1] = system: castrated male Sprague Dawley rats; assay: Ventral prostate and seminal vesicle weight in vivo assay; design: species or system rat; key: A test compound was said to be “active” if the non weight adjusted prostate weight was ≦60 mg or ≧84 mg; they are listed herein as “inactive” as they did not meet the specified criteria defined above; conditions: immature castrated rats, once daily for five days, usually orally 40 mg/kg, with testosterone propionate 2 mg/kg s.c.
Procedure: Immature (approximately 50 g) castrated male Sprague Dawley rats (Charles River) were treated once daily for five days with test compound (usually given orally at 40 mg/kg in a volume of 0.3 mL, in 30% cyclodextrin or 0.5% methylcellulose vehicle) and with testosterone propionate (given subcutaneously by injection at the nape of the neck at 2 mg/kg, in a volume of 0.1 mL in sesame oil). On the sixth day, the rats were euthanized by asphyxiation in carbon dioxide. Ventral prosatates and seminal vesicles were removed and their wet weights determined. Test compound activity was determined as the percent inhibition of testosterone-enhanced tissue weights, with a vehicle-treated control group set to zero percent and a testosterone alone-treated control group set to 100%.
A test compound was said to be “active” if the non weight adjusted prostate weight was ≦60 mg or ≧84 mg.

androgen receptor [2] = biological target: T1, androgen receptor (Rattus norvegicus, UniProt P15207); assay: L929 androgen receptor functional assay, adenovirus transduction; format: cell-based; design: expressed in transfected cells; conditions: 3 μM, L929 cells; for % Activition @ 3 μM: agonist testing (no R1881), luciferase
T1 sequence (P15207 1-902): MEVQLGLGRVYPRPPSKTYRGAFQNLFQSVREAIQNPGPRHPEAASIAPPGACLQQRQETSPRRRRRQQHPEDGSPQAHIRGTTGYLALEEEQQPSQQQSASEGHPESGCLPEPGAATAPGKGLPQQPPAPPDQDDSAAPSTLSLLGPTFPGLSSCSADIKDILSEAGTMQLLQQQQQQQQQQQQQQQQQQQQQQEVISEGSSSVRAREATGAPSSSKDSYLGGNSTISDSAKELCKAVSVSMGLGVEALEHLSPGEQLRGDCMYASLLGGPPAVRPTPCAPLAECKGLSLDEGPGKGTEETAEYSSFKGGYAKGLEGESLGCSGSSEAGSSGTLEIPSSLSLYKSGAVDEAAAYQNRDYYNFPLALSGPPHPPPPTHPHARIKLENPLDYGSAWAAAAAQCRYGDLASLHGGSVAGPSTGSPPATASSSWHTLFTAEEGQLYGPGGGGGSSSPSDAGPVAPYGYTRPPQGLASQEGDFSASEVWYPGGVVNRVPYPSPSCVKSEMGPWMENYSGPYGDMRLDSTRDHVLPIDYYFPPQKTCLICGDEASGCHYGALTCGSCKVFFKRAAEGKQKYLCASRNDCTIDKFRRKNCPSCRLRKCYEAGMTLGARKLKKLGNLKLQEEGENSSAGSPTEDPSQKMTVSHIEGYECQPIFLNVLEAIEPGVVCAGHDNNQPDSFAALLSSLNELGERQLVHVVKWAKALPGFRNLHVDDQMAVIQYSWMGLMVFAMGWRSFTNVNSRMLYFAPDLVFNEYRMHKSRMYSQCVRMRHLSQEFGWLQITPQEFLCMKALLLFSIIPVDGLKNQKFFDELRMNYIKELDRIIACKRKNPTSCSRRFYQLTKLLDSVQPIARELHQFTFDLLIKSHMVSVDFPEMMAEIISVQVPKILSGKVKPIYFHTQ
Procedure: L929 cells were plated in 96-well plates at 20,000 cells per well, in DMEM/F12 (GIBCO) containing 10% (v/v) charcoal-treated fetal bovine serum (Hyclone) and lacking phenol red. The plates were then incubated overnight at 37° C. in 5% (v/v) humidified CO2.
Test compound dilutions were prepared in 100% (v/v) DMSO, if necessary. Each dilution was made to 1250× the final desired assay concentration. First, 2 mL of DMEM/F12 lacking phenol red was pipetted into the wells of a 2-mL 96-well assay block. Next, 4 μL of the 1250× test compound dilutions were pipetted into each well of the assay block. The mixtures within the well were then carefully mixed by pipette.
In a 15 mL or 50 mL sterile centrifuge tube, a 2.5 nM (2.5×) dilution of R1881 (methyl-trienolone) in DMEM/F12 lacking phenol red was prepared. In a second 15 mL or 50 mL centrifuge tube a solution containing an equal volume of DMEM to the first and an equal volume of 100% (v/v) DMSO to the volume of R1881 used in the first tube was prepared.
In a 15 mL or 50 mL sterile centrifuge tube, a dilution in DMEM/F12 of the adenovirus AdEasy+rAR at an moi of 1:500 per well was prepared. The medium was removed from the 96-well plates by inversion and dried, inverted, very briefly. As soon as possible after medium removal, 40 μL of the diluted unlabeled test compound was added to each well, in duplicate. To each well designated for antagonist testing was added 40 μL of the 2.5 nM R1881 dilution to the wells for antagonist testing. To each well designated for agonist testing was added 40 μL of the DMSO dilution. Then 20 μL of the diluted adenovirus were added to all wells. The plates were incubated for 48 hours at 37° C. in 5% (v/v) humidified CO2.
To each well was added 100 μL of Steady-Glo luciferase assay substrate (Promega) and the plates were placed on a rotary shaker for 1 min. The plates were then incubated at room temperature in the dark for one hour. The contents of each well were then transferred to a white microtiter plate (Packard) and read on a Luminoskan Ascent (Thermo Lab Systems).
L929 AR percent activity was determined by testing dilutions of the test compound using a concentration of 3000 nM unless otherwise noted. L929 percent inhibition was determined by testing dilutions of the test compound using a concentration of 3000 nM. EC50s and IC50s were determined by testing serial dilutions of the test compound (usually duplicate ten half-log dilutions starting at 10 μM). Luciferase activity per well were measured and EC50s and IC50s determined by linear regression.
Representative compounds of the present invention were tested for functional activity at the androgen receptor according to the procedure described above with results as listed in Table 4.

androgen receptor [3] = biological target: T1, androgen receptor; assay: Androgen receptor binding using rat ventral prostate cytosol; design: Male Sprague Dawley or Wistar rats (Charles River, 200-300 g) were used for each preparation; from tissue; host or cells: ventral prostate cytosol of castrated male Sprague Dawley or Wistar rats
androgen receptor [4] = biological target: T1, androgen receptor; assay: COS-7 whole-cell androgen receptor binding assay, adenovirus transduction; design: expressed in transfected cells; conditions: 3 μM (3000 nM); COS-7 cells, [3H]R1881, AdEasy+rAR
Procedure: COS-7 cells were plated in 96-well plates at 20,000 cells per well, in a solution of DMEM/F12 (GIBCO) containing 10% (v/v) charcoal-treated fetal bovine serum (Hyclone) and lacking phenol red. The cells were then incubated overnight at 37° C. in 5% (v/v) humidified CO2.
Test compound solutions were prepared by diluting the test compound in 100% (v/v) DMSO, if necessary. Each dilution yielded a solution which was 625× the final desired test concentration.
Next, 1 mL of DMEM/F12 lacking phenol red was pipetted into each of the wells of a 2-mL 96-well assay block. Then 4 μL of the 625× test compound dilutions were pipetted into each well of the assay block. The wells were carefully mixed by pipette.
In a 15 mL or 50 mL sterile centrifuge tube, a 2.5 nM dilution of tritiated methyl-trienolone in DMEM/F12 lacking phenol red ([^3H]R1881; Perkin-Elmer) was prepared.
In a 15 mL or 50 mL sterile centrifuge tube, a dilution in DMEM/F12 of the adenovirus AdEasy+rAR at a moi of 1:50 per well was prepared.
The medium was removed from the 96-well plates by inversion and the plates dried very briefly, inverted, on a sterile towel. As soon as possible after medium removal, 40 μL of the diluted test compound was added to each well, in duplicate. To each well was then added 40 μL of the 2.5 nM [^3H]R1881 and 20 μL of the diluted adenovirus. The plates were then incubated for 48 hours at 37° C. in 5% (v/v) humidified CO2.
The medium was removed from the above incubated plates by inversion and dried. Each well was then washed with 0.35 mL of 1×PBS. The PBS was then removed from the plates by inversion and the plates dried.
To each well was then added 50 μL of 0.5% (v/v) Triton X-100 (Sigma) in 1×PBS and the plates placed on a rotary shaker for 5 min. The contents of each well were then transferred to an OptiPlate-96 (Packard) scintillation plate. To each well was then added 0.2 mL of Microscint-20 (Packard) and the wells counted on a TopCount (Packard).
Percent inhibition was determined by testing dilutions of the test compound (usually duplicates of 10 μM) in the binding assay. Counts per well were measured and percents of inhibition determined. Androgen receptor binding IC50s were determined by testing serial dilutions of the test compound (usually duplicate ten half-log dilutions starting at 10 μM) in the binding assay. Counts per well were measured and IC50s determined by linear regression.
Representative compounds of the present invention were tested for binding to the androgen receptor according to the procedure described above with results as listed in Table C. Unless otherwise noted, COS binding % inhibition was determined using a concentration of 3000 nM. For compounds tested more than once, each result is listed separately in Table 3 below.

[5] = antagonist testing with R1881, luciferase

Row | SMILES | active / inactive by non weight adjusted prostate weight [1] | % Activition @ 3 μM (androgen receptor [2]) [%] | % Inhibition @ 3 μM (androgen receptor [2]; [5]) [%] | % Inhibition @ 3 μM (androgen receptor [3]) [%] | % Inhibition @ 3 μM (androgen receptor [4]) [%] | inhibition at 3 µM (androgen receptor [2]; antagonist testing with R1881, luciferase, read-out: % Inhibition @ 3 μM) [%] | inhibition at 3 µM (androgen receptor [3]) [%]
1 | CC1(C(=O)O)CN(c2ccc(C#N)c(C(F)(F)F)c2)C(=O)N1 (racemic) [Compound 5e] | active | 0 | 30 | −67 |  |  | 
2 | CC1(C(=O)Nc2ccc(Cl)c(C(F)(F)F)c2)CN(c2ccc(F)cc2)C(=O)N1 (racemic) [Compound 6f] |  | 3 | 85 | 66 | 35 |  | 
3 | CC1(C(=O)Nc2ccc(C#N)c(C(F)(F)F)c2)CN(Cc2ccc(F)cc2)C(=O)N1 (racemic) [Compound 6i] |  | 0 | 76 | 4 | 28 |  | 
4 | COC(=O)C1(C)CN(c2ccc(F)cc2)C(=O)N1 (stereo not shown) [Compound 4a, 1-(4-Fluoro-phenyl)-4-methyl-2-oxo-imidazolidine-4-carboxylic acid methyl ester] | inactive | 0 |  |  |  | -20 | -57
